Results reported in ChEMBL document CHEMBL3797052 (Eur J Med Chem, 2016).

Legend:
[1] = Antiproliferative activity against human COLO205 cells assessed as growth inhibition after 48 hrs by sulforhodamine B assay; format: functional; conditions: COLO 205, 48 h; for CC50: read-out: LC50 (the source's name)
[2] = Antiproliferative activity against human HCT116 cells assessed as growth inhibition after 48 hrs by sulforhodamine B assay; format: functional; conditions: HCT-116, 48 h
[3] = Antiproliferative activity against human TK10 cells assessed as growth inhibition after 48 hrs by sulforhodamine B assay; format: functional; conditions: TK-10, 48 h; for CC50: read-out: LC50 (the source's name)
[4] = Antiproliferative activity against human NCI-ADR-RES cells assessed as growth inhibition after 48 hrs by sulforhodamine B assay; format: functional
NCI-H322M = test: Antiproliferative activity against human NCI-H322M cells assessed as growth inhibition after 48 hrs by sulforhodamine B assay; format: functional
[5] = Antiproliferative activity against human UO31 cells assessed as growth inhibition after 48 hrs by sulforhodamine B assay; format: functional; conditions: UO-31, 48 h; for CC50: read-out: LC50 (the source's name)
[6] = Antiproliferative activity against human Hs 578T cells assessed as growth inhibition after 48 hrs by sulforhodamine B assay; format: functional; conditions: for CC50: read-out: LC50 (the source's name)
[7] = Antiproliferative activity against human SF295 cells assessed as cell growth at 10^-4 M after 48 hrs by sulforhodamine B assay; format: functional; conditions: SF-295, 48 h, read-out: Activity
[8] = Antiproliferative activity against human HCT116 cells assessed as cell growth at 10^-6 M after 48 hrs by sulforhodamine B assay; format: functional; conditions: HCT-116, 48 h, read-out: Activity
NCI-H23 = test: Antiproliferative activity against human NCI-H23 cells assessed as cell growth at 10^-6 M after 48 hrs by sulforhodamine B assay; format: functional; conditions: NCI-H23, 48 h, read-out: Activity
[9] = Antiproliferative activity against human BT549 cells assessed as cell growth at 10^-8 M after 48 hrs by sulforhodamine B assay; format: functional; conditions: BT-549, 48 h, read-out: Activity
[10] = Antiproliferative activity against human SF295 cells assessed as cell growth at 10^-7 M after 48 hrs by sulforhodamine B assay; format: functional; conditions: SF-295, 48 h, read-out: Activity
Malme-3M = test: Antiproliferative activity against human MALME-3M cells assessed as cell growth at 10^-8 M after 48 hrs by sulforhodamine B assay; format: functional; conditions: read-out: Activity
[11] = Antiproliferative activity against human IGROV1 cells assessed as cell growth at 10^-8 M after 48 hrs by sulforhodamine B assay; format: functional; conditions: IGROV-1, 48 h, read-out: Activity
ACHN [12] = test: Antiproliferative activity against human ACHN cells assessed as cell growth at 10^-8 M after 48 hrs by sulforhodamine B assay; format: functional; conditions: read-out: Activity
[13] = Antiproliferative activity against human HL-60(TB) cells assessed as cell growth at 10^-7 M after 48 hrs by sulforhodamine B assay; format: functional; conditions: HL-60, 48 h, read-out: Activity
[14] = Antiproliferative activity against human SNB75 cells assessed as cell growth at 10^-7 M after 48 hrs by sulforhodamine B assay; format: functional; conditions: SNB-75, 48 h, read-out: Activity
[15] = Antiproliferative activity against human SNB19 cells assessed as cell growth at 10^-6 M after 48 hrs by sulforhodamine B assay; format: functional; conditions: SNB-19, 48 h, read-out: Activity
MDA-MB-231 = test: Antiproliferative activity against human MDA-MB-231 cells assessed as cell growth at 10^-4 M after 48 hrs by sulforhodamine B assay; format: functional; conditions: MDA-MB-231, 48 h, read-out: Activity
SK-MEL-5 = test: Antiproliferative activity against human SK-MEL-5 cells assessed as cell growth at 10^-4 M after 48 hrs by sulforhodamine B assay; format: functional; conditions: SK-MEL-5, 48 h, read-out: Activity
T47D = test: Antiproliferative activity against human T47D cells assessed as cell growth at 10^-8 M after 48 hrs by sulforhodamine B assay; format: functional; conditions: read-out: Activity
NCI-H522 = test: Antiproliferative activity against human NCI-H522 cells assessed as cell growth at 10^-8 M after 48 hrs by sulforhodamine B assay; format: functional; conditions: NCI-H522, 48 h, read-out: Activity
[16] = Antiproliferative activity against human HL-60(TB) cells assessed as cell growth at 10^-4 M after 48 hrs by sulforhodamine B assay; format: functional; conditions: HL-60, 48 h, read-out: Activity
[17] = Antiproliferative activity against human RPMI8226 cells assessed as cell growth at 10^-6 M after 48 hrs by sulforhodamine B assay; format: functional; conditions: RPMI-8226, 48 h, read-out: Activity
[18] = Antiproliferative activity against human BT549 cells assessed as cell growth at 10^-4 M after 48 hrs by sulforhodamine B assay; format: functional; conditions: BT-549, 48 h, read-out: Activity
[19] = Antiproliferative activity against human SF268 cells assessed as cell growth at 10^-6 M after 48 hrs by sulforhodamine B assay; format: functional; conditions: SF-268, 48 h, read-out: Activity
A498 = test: Antiproliferative activity against human A498 cells assessed as cell growth at 10^-4 M after 48 hrs by sulforhodamine B assay; format: functional; conditions: A498, 48 h, read-out: Activity
NCI-H226 = test: Antiproliferative activity against human NCI-H226 cells assessed as cell growth at 10^-8 M after 48 hrs by sulforhodamine B assay; format: functional; conditions: NCI-H226, 48 h, read-out: Activity
[20] = Antiproliferative activity against human Hs 578T cells assessed as cell growth at 10^-4 M after 48 hrs by sulforhodamine B assay; format: functional; conditions: read-out: Activity
ACHN [21] = test: Antiproliferative activity against human ACHN cells assessed as cell growth at 10^-6 M after 48 hrs by sulforhodamine B assay; format: functional; conditions: read-out: Activity
[22] = Antiproliferative activity against human OVCAR8 cells assessed as cell growth at 10^-4 M after 48 hrs by sulforhodamine B assay; format: functional; conditions: OVCAR-8, 48 h, read-out: Activity
[23] = Antiproliferative activity against human HOP62 cells assessed as cell growth at 10^-7 M after 48 hrs by sulforhodamine B assay; format: functional; conditions: HOP-62, 48 h, read-out: Activity
[24] = system: Serine/threonine-protein kinase B-raf (Homo sapiens), P15056 [V600E]; test: Inhibition of BRAF V600E mutant (unknown origin) at 10 uM measured after 40 mins by scintillation counting
[25] = Antiproliferative activity against human HCC2998 cells assessed as cell growth at 10^-6 M after 48 hrs by sulforhodamine B assay; format: functional; conditions: HCC 2998, 48 h, read-out: Activity
[26] = Antiproliferative activity against human HOP92 cells assessed as cell growth at 10^-7 M after 48 hrs by sulforhodamine B assay; format: functional; conditions: HOP-92, 48 h, read-out: Activity
[27] = Antiproliferative activity against human OVCAR5 cells assessed as cell growth at 10^-4 M after 48 hrs by sulforhodamine B assay; format: functional; conditions: OVCAR-5, 48 h, read-out: Activity
[28] = Antiproliferative activity against human OVCAR5 cells assessed as cell growth at 10^-6 M after 48 hrs by sulforhodamine B assay; format: functional; conditions: OVCAR-5, 48 h, read-out: Activity

Sequence of Serine/threonine-protein kinase B-raf (Homo sapiens), P15056 [V600E] (P15056 whole entry V600E): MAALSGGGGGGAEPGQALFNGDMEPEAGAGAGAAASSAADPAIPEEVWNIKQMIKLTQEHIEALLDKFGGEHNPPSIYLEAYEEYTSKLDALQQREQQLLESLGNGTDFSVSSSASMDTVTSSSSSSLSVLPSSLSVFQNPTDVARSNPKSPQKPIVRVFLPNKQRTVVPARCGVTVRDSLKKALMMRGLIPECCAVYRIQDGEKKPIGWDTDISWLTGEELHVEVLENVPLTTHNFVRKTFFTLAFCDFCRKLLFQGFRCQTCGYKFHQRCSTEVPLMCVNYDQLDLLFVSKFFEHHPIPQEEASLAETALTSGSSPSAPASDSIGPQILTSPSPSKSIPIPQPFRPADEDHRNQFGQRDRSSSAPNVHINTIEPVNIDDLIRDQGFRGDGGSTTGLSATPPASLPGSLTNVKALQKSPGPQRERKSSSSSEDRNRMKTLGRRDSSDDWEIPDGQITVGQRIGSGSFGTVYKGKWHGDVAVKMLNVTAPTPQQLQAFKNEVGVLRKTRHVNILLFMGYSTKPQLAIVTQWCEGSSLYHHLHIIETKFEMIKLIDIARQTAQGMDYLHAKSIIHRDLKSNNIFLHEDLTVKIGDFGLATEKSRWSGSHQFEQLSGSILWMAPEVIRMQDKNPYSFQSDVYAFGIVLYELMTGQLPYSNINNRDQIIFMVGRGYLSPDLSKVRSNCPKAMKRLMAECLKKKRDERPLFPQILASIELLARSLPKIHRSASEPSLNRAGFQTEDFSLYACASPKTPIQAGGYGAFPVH

## CNC(=O)c1cc(Oc2ccc(NC(=O)Nc3ccc(Cl)c(C(F)(F)F)c3)cc2)ccn1 [SORAFENIB]
[1]
  GI50: 2 µM
  TGI: 7.94 µM
  CC50: 31.6 µM
[2]
  TGI: 3.98 µM
[3]
  GI50: 3.98 µM
  TGI: 10 µM
  CC50: 50.1 µM
[4]
  GI50: 2.51 µM
  TGI: 7.94 µM
NCI-H322M
  GI50: 2.51 µM
  TGI: 10 µM
[5]
  GI50: 2.51 µM
  TGI: 7.94 µM
  CC50: 39.8 µM
[6]
  TGI: 7.94 µM
  CC50: 100 µM

## CNC(=O)c1cc(Oc2ccc3nc(NC(=O)Nc4ccc(Cl)c(Cl)c4)sc3c2)ccn1
[7]
  growth at 100 µM: -74%
[1]
  GI50: 4.25 µM
  TGI: > 100 µM
  CC50: > 100 µM
[2]
  GI50: 1.88 µM
  LC50 (concentration killing 50% of the starting cells): 11.5 µM
  TGI: 4.35 µM
[8]
  growth at 1 µM: 88%
NCI-H23
  growth at 1 µM: 88%
[9]
  growth at 0.01 µM: 94%
[10]
  growth at 0.1 µM: 90%
Malme-3M
  growth at 0.01 µM: 97%
[3]
  GI50: 3.46 µM
  TGI: 9.26 µM
  CC50: > 100 µM
[11]
  growth at 0.01 µM: 99%
ACHN [12]
  growth at 0.01 µM: 92%
[13]
  growth at 0.1 µM: 102%
[14]
  growth at 0.1 µM: 83%
[15]
  growth at 1 µM: 100%
MDA-MB-231
  growth at 100 µM: -44%
SK-MEL-5
  growth at 100 µM: -23%
T47D
  growth at 0.01 µM: 102%
NCI-H522
  growth at 0.01 µM: 98%
[16]
  growth at 100 µM: 89%
[17]
  growth at 1 µM: 103%
[18]
  growth at 100 µM: 6%
[19]
  growth at 1 µM: 95%
A498
  growth at 100 µM: -42%
NCI-H226
  growth at 0.01 µM: 104%
[20]
  growth at 100 µM: -22%
ACHN [21]
  growth at 1 µM: 88%
[4]
  GI50: 2.3 µM
  LC50 (concentration killing 50% of cells): > 100 µM
  TGI: 5.09 µM
NCI-H322M
  GI50: 2.45 µM
  LC50 (50% lethal concentration): > 100 µM
[22]
  growth at 100 µM: -52%
[23]
  growth at 0.1 µM: 112%
[24]
  inhibition: 67.6%
[5]
  GI50: 2.08 µM
  TGI: 3.96 µM
  CC50: 7.56 µM
[6]
  GI50: 2.77 µM
  TGI: 6.66 µM
  CC50: > 100 µM
[25]
  growth at 1 µM: 100%
[26]
  growth at 0.1 µM: 110%

## CNC(=O)c1cc(Oc2ccc3nc(NC(=O)c4cc(C(F)(F)F)cc(C(F)(F)F)c4)sc3c2)ccn1
[7]
  growth at 100 µM: -73%
[1]
  GI50: 2.82 µM
  TGI: 8.21 µM
  CC50: 32.8 µM
[2]
  GI50: 3.41 µM
  LC50 (concentration killing 50% of the starting cells): 42.4 µM
  TGI: 11.9 µM
[8]
  growth at 1 µM: 99%
NCI-H23
  growth at 1 µM: 89%
[9]
  growth at 0.01 µM: 97%
[10]
  growth at 0.1 µM: 89%
Malme-3M
  growth at 0.01 µM: 94%
[3]
  GI50: 3.37 µM
  TGI: 13.3 µM
  CC50: 74.9 µM
[11]
  growth at 0.01 µM: 106%
ACHN [12]
  growth at 0.01 µM: 104%
[13]
  growth at 0.1 µM: 97%
[14]
  growth at 0.1 µM: 77%
[15]
  growth at 1 µM: 96%
MDA-MB-231
  growth at 100 µM: -67%
SK-MEL-5
  growth at 100 µM: -89%
T47D
  growth at 0.01 µM: 97%
NCI-H522
  growth at 0.01 µM: 90%
[16]
  growth at 100 µM: -45%
[17]
  growth at 1 µM: 75%
[18]
  growth at 100 µM: -48%
[19]
  growth at 1 µM: 79%
[27]
  growth at 100 µM: -48%
A498
  growth at 100 µM: -65%
NCI-H226
  growth at 0.01 µM: 99%
[28]
  growth at 1 µM: 80%
[20]
  growth at 100 µM: -42%
ACHN [21]
  growth at 1 µM: 96%
[4]
  GI50: 3.67 µM
  LC50 (concentration killing 50% of cells): > 100 µM
  TGI: 19.1 µM
NCI-H322M
  GI50: 3.7 µM
  LC50 (50% lethal concentration): > 100 µM
  TGI: 19.8 µM
[22]
  growth at 100 µM: -61%
[23]
  growth at 0.1 µM: 92%
[5]
  GI50: 2.19 µM
  TGI: 8.95 µM
  CC50: 97 µM
[6]
  GI50: 3.15 µM
  TGI: 13.3 µM
  CC50: > 100 µM
[25]
  growth at 1 µM: 102%
[26]
  growth at 0.1 µM: 86%
